# From US10054581B1, “Inhibitors of notch signaling pathway and use thereof in treatment of cancers” (Ecole Polytechnique Federale de Lausanne (EPFL), priority 2011, dated 2018)
# Tests used:
# [1] = tested on: active form of Notch1 (NICD); test: NICD Western blot (VAL1744) in DL4:N1 HeLa coculture; format: cell-based, human; settings: DL4- and N1-HeLa coculture, DAPT 10 μM, 24 hours
# Experimental: Cells were lysed in RIPA buffer (50 mM Tris.Cl, pH 7.5, 150 mM NaCl, 1% nonidet P-40, 0.5% sodium deoxycholate and 0.1% SDS) for 30 minutes at 4° C. Lysed cells were centrifuged to remove the debris at 14000 rpm at 4° C. Supernatant was transferred to a new eppendorf tube. The protein concentration was determined by Bradford assay using spectrophotometer (Ultrospec 3000 pro). 40 μg of protein were denatured in 1×SDS gel loading buffer (100 mM Tris.Cl, pH 6.8, 200 mM DTT, 4% SDS, 0.2% bromophenol, 20% glycerol) by heating at 99° C. for 5 minutes. Denatured protein samples were stored on ice until loading on to the acrylamide gel. The samples were run on 8% or 10% acrylamide gel in Tris-glycine electrophoresis buffer (25 mM Tris, 250 mM glycine, 0.1% SDS). […]
# For immunoblotting, membranes were blocked with 5% milk and incubated overnight with primary antibodies at 4° C. […] Signal was detected with Super Signal West chemiluminescent substrate (Thermo Scientific, catalog number 34077).
# To assess the Notch pathway activation potential of the stable cell lines, DL4 and N1 stable HeLa cells (DL4-HeLa and N1-HeLa, respectively) were cocultured in 1:1 ratio in a 6-well plate and grown to confluency. […] On the other hand, in the absence of ligand (DL4-HeLa cells) or in the presence of GSI (DAPT) NICD levels were not detected, indicating a loss of Notch signalling (data not shown). […]
# [2] = tested on: CUTL1; test: Annexin V apoptosis, CUTL1; format: cell-based, human; settings: 10 μM, 7 days
# Experimental: FIGS. 6A-6D show 6-(4-Tert-Butylphenoxy)Pyridin-3-Amine (I3) induces G0/G1 cell cycle arrest and apoptosis in human T cell acute lymphoblastic leukemia cell lines and human breast cancer cell line HCC1187. […] Percentage of Annexin V positive (apoptotic) cell population was measured using flow cytometry.
# To quantitate the percentage of apoptotic cells, AnnexinV and 7AAD staining was performed. Thymic cells were suspended in 300 μl of 1× AnnexinV binding buffer (BD Biosciences, San Diego, USA) and incubated with 10 μl of AnnexinV-Cy5 antibody and 10 μl of 7AAD (BD Biosciences, San Diego, USA). Samples were incubated for 15 minutes at room temperature. FACS was performed with in one hour of antibody staining.
# This 6-(4-Tert-Butylphenoxy)Pyridin-3-Amine (I3) mediated proliferative arrest could be due to induction of apoptosis or cell cycle arrest during different phases of cell cycle. […] Therefore to further elucidate the mechanisms responsible for 6-(4-Tert-Butylphenoxy)Pyridin-3-Amine (I3) mediated proliferative arrest cell cycle and apoptosis analyses were carried out. […] To investigate cell death, Annexin V staining was performed and proportion of apoptotic (AnnexinV positive) cell population was determined by flow cytometry analyses after 7 days of treatment.
# [3] = tested on: RPMI 8402 leukemic cells; test: RPMI 8402 xenotransplantation in NOD/SCID γc−/− mice; format: in vivo, human
# Experimental: FIGS. 8A-8B show 6-(4-Tert-Butylphenoxy)Pyridin-3-Amine (I3) treatment increases latency of leukemia development in mice. […] On day 15, leukemic cells were established in the bone marrow. Mice were treated with oil or 6-(4-Tert-Butylphenoxy)Pyridin-3-Amine (I3) for every day. Mice were imaged on day 27 using Caliper IVIS (Xenogen) live imaging system. Red and blue colour indicates the intensity of luciferase signal and correlates with the number of leukemic cells. […] NOD/SCID γc^−/− mice were transplanted with 5×10^5 RPMI 8402 (luciferase expressing) cells. Leukemia development was followed using Caliper IVIS (Xenogen) live imaging system. […]
# The human leukemic cell lines RPMI 8402 and HPB ALL were transduced with a lentivirus containing luciferase gene constitutively expressed downstream of a CMV promoter. […] Mice were monitored for tumor development using Caliper IVIS (Xenogen) live imaging system. […]
# Similarly in a preliminary experiment, NOD/SCID γc^−/− mice were transplanted with 5×10^5 RPMI 8402 cells and treated with oil or 6-(4-Tert-Butylphenoxy)Pyridin-3-Amine (I3) following the establishment of the disease. […] Since these animals were treated with the chemical compound 6-(4-Tert-Butylphenoxy)Pyridin-3-Amine (I3) for 27 days, the intestinal tissue was analyzed to detect any toxicity in the gut.
SMILES,NICD levels (Western blot) [1],apoptosis (Annexin V positive cells) [2],"leukemia development (luciferase live imaging) ([3]; 5×10^5 cells, daily treatment for 27 days after establishment of disease, preliminary experiment)",metastatic lesions in the liver (histology) ([3]; daily treatment for 27 days)
"C[C@H](NC(=O)Cc1cc(F)cc(F)c1)C(=O)N[C@H](C(=O)OC(C)(C)C)c1ccccc1 [DAPT, N—[N-(3,5-difluorophenacetyl-Lalanyl)]-(S)-phenylglycine t-butyl ester, reference compound]",can be blocked by DAPT treatment,,,
"CC(C)(C)c1ccc(Oc2ccc(N)cn2)cc1 [I3, 6-(4-Tert-Butylphenoxy)Pyridin-3-Amine]",,induces significant apoptosis,blocks RPMI 8402 leukemic cell growth in xenotransplantation assay,did not develop any metastatic lesions in the liver
